Results published in patent US5783597A, “2,5-disubstituted thiophenes: inhibitors of 5-lipoxygenase and inducible cyclooxygenase (COX-2) enzymes, composition and use” (Ortho Pharmaceutical Corporation, priority 1997, dated 1998).

Experiments:
5-lipoxygenase (5-LO) [1] = target: T1, 5-lipoxygenase (5-LO) (Rattus norvegicus, UniProt P12527); experiment: RBL-1 cell 5-lipoxygenase and cyclooxygenase - Homogenate (Procedure I); format: biochemical; settings: RBL-1 homogenate supernatant, 5-HETE; read-out: Procedure I (5-LO) Homog. IC50
T1 construct: endogenous in cells; host or cells: intact RBL-1 (rat basophilic leukemia) cells, stimulated with calcium ionophore A23187
T1 sequence (P12527 1-673): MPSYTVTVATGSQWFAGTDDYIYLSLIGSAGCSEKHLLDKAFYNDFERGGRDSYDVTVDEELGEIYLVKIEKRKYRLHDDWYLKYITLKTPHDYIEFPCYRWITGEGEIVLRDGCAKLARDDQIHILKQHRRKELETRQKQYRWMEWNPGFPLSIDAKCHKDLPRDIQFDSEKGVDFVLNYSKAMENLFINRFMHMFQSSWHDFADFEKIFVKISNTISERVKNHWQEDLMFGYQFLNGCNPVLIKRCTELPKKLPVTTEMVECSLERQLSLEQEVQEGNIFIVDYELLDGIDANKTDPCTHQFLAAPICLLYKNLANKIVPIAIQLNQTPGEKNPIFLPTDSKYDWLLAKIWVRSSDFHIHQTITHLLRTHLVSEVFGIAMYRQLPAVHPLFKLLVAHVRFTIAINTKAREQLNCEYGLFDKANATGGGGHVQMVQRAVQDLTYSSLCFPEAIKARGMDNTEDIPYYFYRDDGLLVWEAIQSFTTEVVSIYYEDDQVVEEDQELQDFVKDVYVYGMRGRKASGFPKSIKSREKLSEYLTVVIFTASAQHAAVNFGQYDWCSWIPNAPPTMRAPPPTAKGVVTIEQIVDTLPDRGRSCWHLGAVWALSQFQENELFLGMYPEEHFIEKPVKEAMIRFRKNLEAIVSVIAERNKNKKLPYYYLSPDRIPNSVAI
Protocol: RBL-1 cell 5-lipoxygenase and cyclooxugenase - Homogenate
Rat basophilic leukemia cells (RBL-1; 5×10^7 viable cells/mL) were disrupted by homogenization on ice (four 20 sec bursts) with a Brinkman polytron. […] The homogenate was then centrifuged at 9,220×g for 48 minutes at 4° C. The pellet was discarded and the supernatant was saved as the source of enzymes. The supernatant was pre-incubated for five minutes at 37° C. in the presence of 2 mM of CaCl2 and compound or vehicle (1% DMSO). The conversion of AA into products by CO and LO was initiated by adding 10 μL (50 μCi) of 1-^14 C-AA to each tube and incubated at 37° C. for 20 minutes. The reaction was stopped by adjusting the pH of each sample to 3 to 3.5 with 2M formic acid. Samples were extracted with three volumes of chloroform to isolate the products of 5-LO formed during the reaction. Fractions were dried under nitrogen, then resuspended in 40 μL of chloroform and spotted onto silica gel HL plates. The plates were developed in A-9 solvent. The dried plates were analyzed using a Bioscan Imaging TLC scanner to determine the percentage of radiolabelled M converted to 5-HETE (LO product) and PGD2 (CO product) in each sample.

[2] = tested on: inflammatory cells (leukocyte influx); experiment: Carrageenan-induced inflammation in subcutaneous chambers in beagle dogs: cellular (leukocyte) influx (Procedure IV); format: in vivo; settings: oral
Protocol: Carrageenan-Induced Localized Inflammation In Subcutaneous Chambers Implanted In Beagle Dogs
(§1) Sterile perforated teflon chambers (wiffle golf balls) were surgically implanted subcutaneously in the dorsal neck fold of beagle dogs (8-13 kg, mixed sex). After a recovery period of 1 month, a 1 ml sample of fluid exudate from each dog was aspirated from within the chamber using a 1 ml syringe and 20 gauge 1 inch needle inserted through one of the perforations in the ball. Immediately after obtaining the sample, 1.5 ml of 0.33% sterile carrageenan lambda (Sigma Chemical Co., St. Louis, Mo.) was injected into the chamber. Dilutions of the baseline samples were made in saline and analyzed for leukocyte count using a Coulter Counter (6.08-50 μm range). The sample was also analyzed for concentrations of PGE2 and LTB4 by adding 200 μl of sample to 1 ml ethanol and centrifuging the precipitate (1,500 X g, 7 min). The supernatant was aspirated and stored at 0° C. until enzyme linked immunosorbant assays (ELISAs) were performed (ELISA Technologies, Lexington, Ky.). […]
(§2) Drug effects can be evaluated on several important aspects of inflammation using this in-vivo assay. […] Selectivity of a COX inhibitor can be determined by comparing PGE2 inhibition in peripheral blood (COX-1) to that of the inflammatory fluid exudate in the chamber (COX-2).

LTB4 production = experiment: Ex vivo LTB4 production in peripheral (whole) blood of beagle dogs after oral dosing (Procedure IV)
Protocol: as §1, with “Ky.). Samples were also drawn at 5 and 24 hours post carrageenan challenge and treated in a similar manner.” for “Ky.).”
as §2

5-lipoxygenase (5-LO) [3] = target: T1, 5-lipoxygenase (5-LO); experiment: RBL-1 cell 5-lipoxygenase and cyclooxygenase - Whole cells (Procedure II); format: cell-based; settings: intact RBL-1 cells, 5-HETE; read-out: Procedure II (5-LO) Wh Cell IC50
Protocol: RBL-1 Cell 5-Lipoxygenase and cyclooxygenase - Whole cells
The ability to inhibit 5-LO and CO in intact RBL-1 cells was also evaluated. […] Cells were collected by centrifugation, washed once in HBSS, and resuspended at a concentration of 1×10^5 cells/mL. Cells were incubated in the presence of vehicle or drug then centrifuged at 800×g for 10 minutes at 4° C. The supernatant was removed by aspiration and the cells were resuspended in 0.5 mL of HBSS. […] The conversion of M to 5-LO products was initiated by the addition of 10 μL (50 uCi) of 1-^14 C-AA. Products were isolated by acidification and extraction, followed by thin layer chromatography analysis as described above. Radioactive areas corresponding to authentic 5-LO (5-HETE) and CO (PGD2) products were quantitated by the Bioscan 2000 Imaging System.

- IC50 (5-lipoxygenase (5-LO) [1]): 130 nM
- IC50 (5-lipoxygenase (5-LO) [3]): 460 nM
Compound: CS(=O)(=O)Nc1ccc(Oc2ccc(F)cc2)s1 [Example 1]
- ED50 ([2]; Canis lupus familiaris, Leukocyte, inflammatory chamber exudate, read-out: ED50 for inhibition of cellular influx): < 0.01 mg/kg
- inhibition of accumulation of inflammatory cells in the exudate ([2]; inflammatory chambers): dose related inhibition
- ED50 (LTB4 production; Canis lupus familiaris, 5 h, five hours after oral administration, ex vivo, read-out: inhibition of peripheral LTB4 production, IC50): 4.4 mg/kg
- inhibition of LTB4 production in whole blood (LTB4 production; at 24 hours following dosing, oral): No inhibition of LTB4 production in whole blood was detected
